Tested on: HCT116 cells
Assay: Cell viability assay (CellTiter-Glo, 72 hours) in HCT116 human colorectal cancer cells
Type: cell-based
Conditions: Homo sapiens, HCT-116; Table 3; HCT116, 72 hours; read-out: Activity
How it was run: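 2,000 cells/well adhered overnight, then compound added by digital dispenser with DMSO normalized to 0.5%. Viability read after 72 h at 37 °C by ATP-based CellTiter-Glo luminescence. IC50 from ten-point curves baseline-corrected to vehicle, five-parameter asymmetric least-squares fit.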

IC50 [nM] | Structure (SMILES)
< 500 | CC#CCN1C(=O)c2ccccc2Sc2cc(NC(=O)Nc3ccc(OC(F)F)cc3)ccc21 [Table 3: —CH2CCMe; 4-F2HCOPh; CH/CH, 1-(10-(But-2-yn-1-yl)-11-oxo-10,11-dihydrodibenzo[b,f][1,4]thiazepin-7-yl)-3-(4-(difluoromethoxy)phenyl) urea]

Same assay, conditions: Homo sapiens, HCT-116; Table 4; HCT116, 72 hours; read-out: Activity

IC50 [nM] | Structure (SMILES)
< 500 | CC#CCN1C(=O)c2ccccc2Sc2cc(NC(=S)Nc3ccc(OC(F)F)cc3)ccc21 [Table 4: —CH2CCMe; 4-F2HCOPh; CH, 1-(10-(But-2-yn-1-yl)-11-oxo-10,11-dihydrodibenzo[b,f][1,4]thiazepin-7-yl)-3-(4-(difluoromethoxy)phenyl)thiourea]

Same assay, conditions: Homo sapiens, HCT-116; Table 6; HCT116, 72 hours; read-out: Activity

IC50 [nM] | Structure (SMILES)
< 500 | CC#CCN1C(=O)c2ccccc2Sc2cc(NC3CC(CO)C3)ccc21 (stereo not shown) [Table 6: —CH2CCMe; 3-HOCH2-cBu; CH/CH; S, 10-(But-2-yn-1-yl)-7-((3-(hydroxymethyl)cyclobutyl)amino)dibenzo[b,f][1,4]thiazepin-11 (10H)-one]
< 500 | CC#CCN1C(=O)c2ccccc2Sc2cc(NC3CC(COC)C3)cnc21 (stereo not shown) [Table 6: —CH2CCMe; 3-MeOCH2-cBu; CH/N; S, 11-(But-2-yn-1-yl)-3-((3-(methoxymethyl)cyclobutyl)amino)benzo[f]pyrido[3,2-b][1,4]thiazepin-10(11H)-one]
< 500 | CC#CCN1C(=O)c2ccccc2Sc2cc(NC3CC(OC)C3)ccc21 (stereo not shown) [Table 6: —CH2CCMe; 3-MeOcBu; CH/CH; S, 10-(But-2-yn-1-yl)-7-((3-methoxycyclobutyl)amino)dibenzo[b,f][1,4]thiazepin-11 (10H)-one]

Same assay, conditions: Table 3; HCT116, 72 hours; read-out: Activity

IC50 [nM] | Structure (SMILES)
< 500 | CC#CCN1C(=O)c2ccccc2Sc2cc(NC(=O)Nc3ccc(OC)cc3)ccc21 [Table 3: —CH2CCMe; 4-MeOPh; CH/CH]
< 500 | CC#CCN1C(=O)c2ccccc2Sc2cc(NC(=O)Nc3ccc(OC)cc3)cnc21 [Table 3: —CH2CCMe; 4-MeOPh; CH/N]
< 500 | CC#CCN1C(=O)c2ccccc2Sc2cc(NC(=O)N[C@H]3C[C@@H](OC)C3)cnc21 [Table 3: —CH2CCMe; cis-3-MeOcBu; CH/N]
< 500 | CC#CCN1C(=O)c2ccccc2Sc2cc(NC(=O)N[C@H]3C[C@@H](O)C3)ccc21 [Table 3: —CH2CCMe; cis-3-OH-cBu; CH/CH]
< 500 | CC#CCN1C(=O)c2ccccc2Sc2cc(NC(=O)N[C@H]3C[C@@H](O)C3)cnc21 [Table 3: —CH2CCMe; cis-3-OH-cBu; CH/N]
< 500 | CC#CCN1C(=O)c2ccccc2Sc2cc(NC(=O)NC3COC3)ccc21 [Table 3: —CH2CCMe; oxetan-3-yl; CH/CH]
< 500 | CC#CCN1C(=O)c2ccccc2Sc2cc(NC(=O)N[C@H]3C[C@H](OC)C3)ccc21 [Table 3: —CH2CCMe; trans-3-MeOcBu; CH/CH]
< 500 | CC#CCN1C(=O)c2ccccc2Sc2cc(NC(=O)N[C@H]3C[C@H](O)C3)ccc21 [Table 3: —CH2CCMe; trans-3-OH-cBu; CH/CH]
< 500 | CC#CCN1C(=O)c2ccccc2Sc2cc(NC(=O)N[C@H]3C[C@H](O)C3)cnc21 [Table 3: —CH2CCMe; trans-3-OH-cBu; CH/N]

Same assay, conditions: Table 4; HCT116, 72 hours; read-out: Activity

IC50 [nM] | Structure (SMILES)
< 500 | CC#CCN1C(=O)c2ccccc2Sc2cc(NC(=S)Nc3cccc(OCF)c3)ccc21 [Table 4: —CH2CCMe; 3-FH2COPh; CH]
< 500 | CC#CCN1C(=O)c2ccccc2Sc2cc(NC(=S)Nc3cccc(OCF)c3)cnc21 [Table 4: —CH2CCMe; 3-FH2COPh; N]
< 500 | CC#CCN1C(=O)c2ccccc2Sc2cc(NC(=S)NC3CC(COC)C3)ccc21 (stereo not shown) [Table 4: —CH2CCMe; 3-MeOCH2-cBu; CH]
< 500 | CC#CCN1C(=O)c2ccccc2Sc2cc(NC(=S)NC3CC(COC)C3)cnc21 (stereo not shown) [Table 4: —CH2CCMe; 3-MeOCH2-cBu; N]
< 500 | CC#CCN1C(=O)c2ccccc2Sc2cc(NC(=S)Nc3cccc(OC)c3)ccc21 [Table 4: —CH2CCMe; 3-MeOPh; CH]
< 500 | CC#CCN1C(=O)c2ccccc2Sc2cc(NC(=S)Nc3cccc(OC)c3)cnc21 [Table 4: —CH2CCMe; 3-MeOPh; N]
< 500 | CC#CCN1C(=O)c2ccccc2Sc2cc(NC(=S)Nc3ccc(OC(F)F)cc3)cnc21 [Table 4: —CH2CCMe; 4-F2HCOPh; N]
< 500 | CC#CCN1C(=O)c2ccccc2Sc2cc(NC(=S)Nc3ccc(OCF)cc3)cnc21 [Table 4: —CH2CCMe; 4-FH2COPh; N]
< 500 | CC#CCN1C(=O)c2ccccc2Sc2cc(NC(=S)Nc3ccc(OC)cc3)ccc21 [Table 4: —CH2CCMe; 4-MeOPh; CH]
< 500 | CC#CCN1C(=O)c2ccccc2Sc2cc(NC(=S)Nc3ccc(OC)cc3)cnc21 [Table 4: —CH2CCMe; 4-MeOPh; N]
< 500 | CC#CCN1C(=O)c2ccccc2Sc2cc(NC(=S)Nc3ccc(OC)nc3)cnc21 [Table 4: —CH2CCMe; 6-MeO-pyridin-3-yl; N]
< 500 | CC#CCN1C(=O)c2ccccc2Sc2cc(NC(=S)N[C@H]3C[C@@H](OC)C3)ccc21 [Table 4: —CH2CCMe; cis-3-MeOcBu; CH]
< 500 | CC#CCN1C(=O)c2ccccc2Sc2cc(NC(=S)N[C@H]3C[C@@H](OC)C3)cnc21 [Table 4: —CH2CCMe; cis-3-MeOcBu; N]
< 500 | CC#CCN1C(=O)c2ccccc2Sc2cc(NC(=S)N[C@H]3C[C@@H](O)C3)ccc21 [Table 4: —CH2CCMe; cis-3-OH-cBu; CH]
< 500 | CC#CCN1C(=O)c2ccccc2Sc2cc(NC(=S)N[C@H]3C[C@@H](O)C3)cnc21 [Table 4: —CH2CCMe; cis-3-OH-cBu; N]
< 500 | CC#CCN1C(=O)c2ccccc2Sc2cc(NC(=S)NC3COC3)ccc21 [Table 4: —CH2CCMe; oxetan-3-yl; CH]
< 500 | CC#CCN1C(=O)c2ccccc2Sc2cc(NC(=S)NC3COC3)cnc21 [Table 4: —CH2CCMe; oxetan-3-yl; N]
< 500 | CC#CCN1C(=O)c2ccccc2Sc2cc(NC(=S)N[C@H]3C[C@H](OC)C3)ccc21 [Table 4: —CH2CCMe; trans-3-MeOcBu; CH]
< 500 | CC#CCN1C(=O)c2ccccc2Sc2cc(NC(=S)N[C@H]3C[C@H](OC)C3)cnc21 [Table 4: —CH2CCMe; trans-3-MeOcBu; N]
< 500 | CC#CCN1C(=O)c2ccccc2Sc2cc(NC(=S)N[C@H]3C[C@H](O)C3)ccc21 [Table 4: —CH2CCMe; trans-3-OH-cBu; CH]
< 500 | CC#CCN1C(=O)c2ccccc2Sc2cc(NC(=S)N[C@H]3C[C@H](O)C3)cnc21 [Table 4: —CH2CCMe; trans-3-OH-cBu; N]

Same assay, conditions: Table 6; HCT116, 72 hours; read-out: Activity

IC50 [nM] | Structure (SMILES)
< 500 | O=C1c2ccccc2Sc2cc(NC3CC(O)C3)ccc2N1CC#CCl (stereo not shown) [Table 6: —CH2CCCl; 3-HOcBu; CH/CH; S]
< 500 | O=C1c2ccccc2Sc2cc(NC3CC(O)C3)cnc2N1CC#CCl (stereo not shown) [Table 6: —CH2CCCl; 3-HOcBu; CH/N; S]
< 500 | COCC1CC(Nc2cnc3c(c2)Sc2ccccc2C(=O)N3CC#CCl)C1 (stereo not shown) [Table 6: —CH2CCCl; 3-MeOCH2-cBu; CH/N; S]
< 500 | COC1CC(Nc2ccc3c(c2)Sc2ccccc2C(=O)N3CC#CCl)C1 (stereo not shown) [Table 6: —CH2CCCl; 3-MeOcBu; CH/CH; S]
< 500 | COC1CC(Nc2cnc3c(c2)Sc2ccccc2C(=O)N3CC#CCl)C1 (stereo not shown) [Table 6: —CH2CCCl; 3-MeOcBu; CH/N; S]
< 500 | O=C1c2ccccc2Sc2cc(NC3COC3)ccc2N1CC#CCl [Table 6: —CH2CCCl; oxetan-3-yl; CH/CH; S]
< 500 | O=C1c2ccccc2Sc2cc(NC3COC3)cnc2N1CC#CCl [Table 6: —CH2CCCl; oxetan-3-yl; CH/N; S]
< 500 | C#CCN1C(=O)c2ccccc2Sc2cc(NC3CC(O)C3)ccc21 (stereo not shown) [Table 6: —CH2CCH; 3-HOcBu; CH/CH; S]
< 500 | C#CCN1C(=O)c2ccccc2Sc2cc(NC3CC(O)C3)cnc21 (stereo not shown) [Table 6: —CH2CCH; 3-HOcBu; CH/N; S]
< 500 | C#CCN1C(=O)c2ccccc2Sc2cc(NC3CC(COC)C3)ccc21 (stereo not shown) [Table 6: —CH2CCH; 3-MeOCH2-cBu; CH/CH; S]
< 500 | C#CCN1C(=O)c2ccccc2Sc2cc(NC3CC(COC)C3)cnc21 (stereo not shown) [Table 6: —CH2CCH; 3-MeOCH2-cBu; CH/N; S]
< 500 | C#CCN1C(=O)c2ccccc2Sc2cc(NC3CC(OC)C3)ccc21 (stereo not shown) [Table 6: —CH2CCH; 3-MeOcBu; CH/CH; S]
< 500 | C#CCN1C(=O)c2ccccc2Sc2cc(NC3CC(OC)C3)cnc21 (stereo not shown) [Table 6: —CH2CCH; 3-MeOcBu; CH/N; S]
< 500 | C#CCN1C(=O)c2ccccc2Sc2cc(NC3COC3)cnc21 [Table 6: —CH2CCH; oxetan-3-yl; CH/N; S]
< 500 | CC#CCN1C(=O)c2ccccc2Sc2cc(NC3CC(CO)C3)cnc21 (stereo not shown) [Table 6: —CH2CCMe; 3-HOCH2-cBu; CH/N; S]
< 500 | CC#CCN1C(=O)c2ccccc2Cc2cc(NC3CC(O)C3)ccc21 (stereo not shown) [Table 6: —CH2CCMe; 3-HOcBu; CH/CH; CH2]
< 500 | CC#CCN1C(=O)c2ccccc2Sc2cc(NC3CC(O)C3)cnc21 (stereo not shown) [Table 6: —CH2CCMe; 3-HOcBu; CH/N; S]
< 500 | CC#CCN1C(=O)c2ccccc2Sc2cc(NC3CC(OC)C3)cnc21 (stereo not shown) [Table 6: —CH2CCMe; 3-MeOcBu; CH/N; S]
< 500 | CC#CCN1C(=O)c2ccccc2Cc2cc(NCCCO)ccc21 [Table 6: —CH2CCMe; (CH2)3 OH; CH/CH; CH2]
< 500 | CC#CCN1C(=O)c2ccccc2Sc2cc(NCCCO)ccc21 [Table 6: —CH2CCMe; (CH2)3OH; CH/CH; S]
< 500 | CC#CCN1C(=O)c2ccccc2Cc2cc(NCCCOC)ccc21 [Table 6: —CH2CCMe; (CH2)3OMe; CH/CH; CH2]
< 500 | CC#CCN1C(=O)c2ccccc2Sc2cc(NCCCOC)ccc21 [Table 6: —CH2CCMe; (CH2)3OMe; CH/CH; S]
< 500 | CC#CCN1C(=O)c2ccccc2Sc2cc(NCCCOC)cnc21 [Table 6: —CH2CCMe; (CH2)3OMe; CH/N; S]

Source: patent publication US20260097047A1, “Small molecule inhibitors of the ribosome biogenesis factor NVL2” (Board of Regents, The University of Texas System, priority 2023, published 2026)
